From ChEMBL document CHEMBL1135089, “Nonpeptide alpha(v)beta(3) antagonists. Part 2: constrained glycyl amides derived from the RGD tripeptide” (Bioorg Med Chem Lett, 2002)

Assays:
[1] = target: Integrin alpha-V/beta-3 (Homo sapiens, UniProt P05106+P06756); experiment: Displacement of a non-peptide radioligand from human recombinant alphaV-beta3 integrin; type: protein-complex assay
[2] = organism: Mus musculus; experiment: The ability of compound to inhibit the transformation of osteoblast-like cells originally derived from mouse calvaria, into osteoclasts by OCFORM assay; type: functional, cell-based

Sequence of Integrin alpha-V/beta-3 (P05106 27-788 limits assumed): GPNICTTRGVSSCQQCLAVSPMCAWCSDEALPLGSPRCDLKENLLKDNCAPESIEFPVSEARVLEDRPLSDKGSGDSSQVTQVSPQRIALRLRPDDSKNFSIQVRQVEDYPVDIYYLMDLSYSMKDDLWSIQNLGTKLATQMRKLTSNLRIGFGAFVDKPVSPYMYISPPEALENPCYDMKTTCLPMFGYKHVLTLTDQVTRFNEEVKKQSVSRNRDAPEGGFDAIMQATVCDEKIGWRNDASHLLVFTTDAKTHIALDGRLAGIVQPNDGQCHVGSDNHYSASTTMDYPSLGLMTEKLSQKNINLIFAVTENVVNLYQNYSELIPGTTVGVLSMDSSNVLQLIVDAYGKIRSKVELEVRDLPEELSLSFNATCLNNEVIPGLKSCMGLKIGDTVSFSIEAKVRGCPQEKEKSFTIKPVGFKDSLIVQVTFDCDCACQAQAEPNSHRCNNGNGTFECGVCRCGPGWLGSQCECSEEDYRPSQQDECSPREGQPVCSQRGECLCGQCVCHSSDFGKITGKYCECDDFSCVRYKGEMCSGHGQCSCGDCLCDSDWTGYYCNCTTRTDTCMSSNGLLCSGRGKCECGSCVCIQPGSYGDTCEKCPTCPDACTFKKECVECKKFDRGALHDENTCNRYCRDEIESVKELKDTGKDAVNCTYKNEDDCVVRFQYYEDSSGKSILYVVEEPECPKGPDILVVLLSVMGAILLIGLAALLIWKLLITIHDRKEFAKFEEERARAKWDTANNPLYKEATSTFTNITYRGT
Sequence of Integrin alpha-V/beta-3 (P06756 31-889 limits assumed): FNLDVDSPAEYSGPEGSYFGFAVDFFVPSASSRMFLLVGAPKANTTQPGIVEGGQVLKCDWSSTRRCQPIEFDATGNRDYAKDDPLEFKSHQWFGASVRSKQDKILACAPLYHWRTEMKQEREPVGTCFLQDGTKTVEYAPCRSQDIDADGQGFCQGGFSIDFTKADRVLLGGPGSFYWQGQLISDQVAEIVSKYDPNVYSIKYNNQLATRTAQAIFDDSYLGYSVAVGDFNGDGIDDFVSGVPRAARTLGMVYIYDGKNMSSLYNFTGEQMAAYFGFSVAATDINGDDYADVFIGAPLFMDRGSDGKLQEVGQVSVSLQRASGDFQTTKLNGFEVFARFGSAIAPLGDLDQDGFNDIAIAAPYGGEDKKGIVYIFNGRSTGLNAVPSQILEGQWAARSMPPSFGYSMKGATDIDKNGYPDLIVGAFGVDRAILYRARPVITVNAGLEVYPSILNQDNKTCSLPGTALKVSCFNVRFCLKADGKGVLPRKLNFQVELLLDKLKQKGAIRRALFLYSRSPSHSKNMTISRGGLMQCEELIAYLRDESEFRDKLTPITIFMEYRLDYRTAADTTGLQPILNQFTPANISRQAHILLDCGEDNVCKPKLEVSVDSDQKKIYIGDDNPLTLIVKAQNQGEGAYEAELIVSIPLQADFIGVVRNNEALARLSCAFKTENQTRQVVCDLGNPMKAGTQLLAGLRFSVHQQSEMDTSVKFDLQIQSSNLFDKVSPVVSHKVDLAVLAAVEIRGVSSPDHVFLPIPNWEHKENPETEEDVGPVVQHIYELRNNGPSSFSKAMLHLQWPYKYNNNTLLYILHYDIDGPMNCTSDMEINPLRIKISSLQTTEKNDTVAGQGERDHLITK
Sequence of Integrin alpha-V/beta-3 (P06756 891-1048 limits assumed): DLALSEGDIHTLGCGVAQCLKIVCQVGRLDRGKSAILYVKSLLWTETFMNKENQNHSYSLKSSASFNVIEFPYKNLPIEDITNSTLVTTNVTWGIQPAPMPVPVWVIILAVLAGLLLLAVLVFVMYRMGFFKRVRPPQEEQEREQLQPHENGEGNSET

SMILES	IC50 [1] [nM]	IC50 [2] [nM]
N=C(N)NCCCCC(=O)NCC(=O)NCCC(=O)O	> 10000	
O=C(O)C[C@H](NC(=O)CN1CC[C@H](CCc2ccc3c(n2)NCCC3)C1=O)c1cccnc1		62
C#C[C@H](CC(=O)O)NC(=O)CNC(=O)CCCc1ccc2c(n1)NCCC2	8.8	
C#C[C@H](CC(=O)O)NC(=O)CN1CC[C@H](CCc2ccc3c(n2)NCCC3)C1=O	2.9	150
O=C(O)C[C@H](NC(=O)CN1CCN(CCc2ccc3c(n2)NCCC3)C1=O)c1cccnc1	12	> 1000
O=C(O)CCNC(=O)CNC(=O)CCCc1ccc2c(n1)NCCC2	111	
N=C(N)NCCC[C@H](N)C(=O)NCC(=O)N[C@@H](CC(=O)O)C(=O)O	> 10000	

The remaining compounds from weak to strong by IC50 [1], led by results:

IC50 [1] [nM]	IC50 [2] [nM]	SMILES
1.3		O=C(O)C[C@H](NC(=O)CNC(=O)CCCc1ccc2c(n1)NCCC2)c1cccnc1
1.2	480	O=C(O)C[C@H](NC(=O)CN1CCCC(CCc2ccc3c(n2)NCCC3)C1=O)c1cccnc1 (some centres undefined)
0.94	79	O=C(O)C[C@H](NC(=O)CN1CC[C@@H](CCc2ccc3c(n2)NCCC3)C1=O)c1cccnc1
